Measurements reported in patent publication US6586402B1, “LH-RH peptide analogues, their uses and pharmaceutical compositions containing them” (Laboratoire Theramex, priority 1997, dated 2003).
“Also recorded” adds a separate entry of the source. Square brackets hold non-standard residues; d marks the D form. Peptide text beside a SMILES is read from it. dPhe(4-Cl) = N[C@H](Cc1ccc(Cl)cc1)C(=O)O; d2Nal = N[C@H](Cc1ccc2ccccc2c1)C(=O)O; d(hCit) = NC(=O)NCCCC[C@@H](N)C(=O)O; dCit = NC(=O)NCCC[C@@H](N)C(=O)O; tBuAla = CC(C)(C)C[C@H](N)C(=O)O; d3Pal = N[C@H](Cc1cccnc1)C(=O)O; pGlu = O=C1CC[C@@H](C(=O)O)N1

T1: LH-RH receptors (Rattus norvegicus, UniProt P30969)
T1 sequence (P30969 1-327): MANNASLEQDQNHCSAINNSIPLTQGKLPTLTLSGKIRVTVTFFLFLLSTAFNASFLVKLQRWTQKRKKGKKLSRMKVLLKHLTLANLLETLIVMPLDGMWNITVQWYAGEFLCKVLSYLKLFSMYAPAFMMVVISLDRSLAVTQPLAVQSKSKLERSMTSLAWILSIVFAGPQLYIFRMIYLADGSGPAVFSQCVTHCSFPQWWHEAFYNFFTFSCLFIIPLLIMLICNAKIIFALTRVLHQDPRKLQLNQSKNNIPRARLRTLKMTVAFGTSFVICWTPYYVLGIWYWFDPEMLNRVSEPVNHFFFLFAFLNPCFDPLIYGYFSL


Key:
LH-RH receptors [1] = molecular target: T1, LH-RH receptors; assay: Stimulation of testosterone secretion in adult male rats after subcutaneous injection (agonist activity in vivo); parameters: exert an agonist activity upon the LH-RH receptors in vivo; from tissue; host or cells: whole animal, adult male Sprague-Dawley rats; species or system Sprague-Dawley rats; details: for Total plasma testosterone: Table 2, 10 ng/kg subcutaneous in PBS, blood two hours later, male Sprague-Dawley rats, vehicle 2.7 ± 0.3; for agonistic potency in words: comment on Tables 2 and 3
Procedure: The peptides according to the general formula (IIa) exert an agonist activity upon the LH-RH receptors in vivo, resulting in the stimulation of LH secretion by the pituitary, which, in males, stimulates the secretion of testosterone by the testis.
Two hours later, blood samples were drawn for total plasma testosterone determination by direct radioimmunoassay (Immunotech).
At this intermediate dose of 10 ng/kg, several examples with Npg^7 or Ada^7 in place of Leu^7 according to the invention were screened for agonistic activity (Tables 2 and 3). When available from Bachem (France) or Sigma (France), the corresponding standard agonist with Leu^7 was tested for comparison.

LH-RH receptors [2] = molecular target: T1, LH-RH receptors; assay: biochemical
[3] = molecular target: LH-RH receptors (membrane fractions of pituitaries from female Sprague Dawley rats) (rat (female Sprague Dawley)) (UniProt P30969); assay: competition with [125I]-buserelin, rat pituitary membranes; Ki by Cheng-Prusoff

Molecule | Total plasma testosterone (LH-RH receptors [1]) | Ki (LH-RH receptors [2]) | pKi [3] | also measured
C[C@@H](NC(=O)[C@H](Cc1ccc(O)cc1)NC(=O)[C@H](CO)NC(=O)[C@H](Cc1c[nH]c2ccccc12)NC(=O)[C@H](Cc1c[nH]cn1)NC(=O)[C@@H]1CCC(=O)N1)C(=O)N[C@@H](CC(C)(C)C)C(=O)N[C@@H](CCCNC(=N)N)C(=O)N1CCC[C@H]1C(=O)NCC(N)=O [Example 3, pGlu-His-Trp-Ser-Tyr-D-Ala-Npg-Arg-Pro-Gly-NH2] ([pGlu]HWSY[dA][tBuAla]RPG-NH2) | 16.7 ± 1.9 nmol/L | 0.269 nM | – | –
CCNC(=O)[C@@H]1CCCN1C(=O)[C@H](CCCNC(=N)N)NC(=O)[C@H](CC(C)C)NC(=O)[C@@H](COC(C)(C)C)NC(=O)[C@H](Cc1ccc(O)cc1)NC(=O)[C@H](CO)NC(=O)[C@H](Cc1c[nH]c2ccccc12)NC(=O)[C@H](Cc1cnc[nH]1)NC(=O)[C@@H]1CCC(=O)N1 [Buserelin, reference compound] | – | 0.447 nM | – | –
CCNC(=O)[C@@H]1CCCN1C(=O)[C@H](CCCNC(=N)N)NC(=O)[C@H](CC(C)(C)C)NC(=O)[C@@H](C)NC(=O)[C@H](Cc1ccc(O)cc1)NC(=O)[C@H](CO)NC(=O)[C@H](Cc1c[nH]c2ccccc12)NC(=O)[C@H](Cc1c[nH]cn1)NC(=O)[C@@H]1CCC(=O)N1 [Example 4, pGlu-His-Trp-Ser-Tyr-D-Ala-Npg-Arg-Pro-NEt] | 33.8 ± 5.8 nmol/L | 0.0977 nM | – | –
CC(C)(C)C[C@H](NC(=O)[C@@H](Cc1ccccc1)NC(=O)[C@H](Cc1ccc(O)cc1)NC(=O)[C@H](CO)NC(=O)[C@H](Cc1c[nH]c2ccccc12)NC(=O)[C@H](Cc1c[nH]cn1)NC(=O)[C@@H]1CCC(=O)N1)C(=O)N[C@@H](CCCNC(=N)N)C(=O)N1CCC[C@H]1C(=O)NCC(N)=O [Example 9, pGlu-His-Trp-Ser-Tyr-D-Phe-Npg-Arg-Pro-Gly-NH2] ([pGlu]HWSY[dF][tBuAla]RPG-NH2) | 30.9 ± 3.6 nmol/L | 2.34 nM | – | agonistic potency in words (LH-RH receptors [1]; 10 ng/kg s.c.): range of potency similar to that of leuprorelin or tryptorelin
CCNC(=O)[C@@H]1CCCN1C(=O)[C@H](CCCNC(=N)N)NC(=O)[C@H](CC(C)(C)C)NC(=O)[C@@H](CC(C)(C)C)NC(=O)[C@H](Cc1ccc(O)cc1)NC(=O)[C@H](CO)NC(=O)[C@H](Cc1c[nH]c2ccccc12)NC(=O)[C@H](Cc1c[nH]cn1)NC(=O)[C@@H]1CCC(=O)N1 [Example 8, pGlu-His-Trp-Ser-Tyr-D-Npg-Npg-Arg-Pro-NEt] | – | 1.86 nM | – | –
CCNC(=O)[C@@H]1CCCN1C(=O)[C@H](CCCNC(=N)N)NC(=O)[C@H](CC(C)(C)C)NC(=O)[C@@H](CC(C)C)NC(=O)[C@H](Cc1ccc(O)cc1)NC(=O)[C@H](CO)NC(=O)[C@H](Cc1c[nH]c2ccccc12)NC(=O)[C@H](Cc1c[nH]cn1)NC(=O)[C@@H]1CCC(=O)N1 [Example 6, pGlu-His-Trp-Ser-Tyr-D-Leu-Npg-Arg-Pro-NEt] | 48.6 ± 4.3 nmol/L | 0.468 nM | – | activity in stimulating testosterone secretion relative to the Leu^7 counterpart (LH-RH receptors [1]; 10 ng/kg s.c.): a little more than twice as active as leuprorelin; agonistic potency in words (LH-RH receptors [1]; 10 ng/kg s.c.): Npg^7 led to more potent agonists than Ada^7; also recorded: more potent LH-RH agonists than current therapeutic LH-RH analogues
CCNC(=O)[C@@H]1CCCN1C(=O)[C@H](CCCNC(=N)N)NC(=O)[C@H](CC(C)(C)C)NC(=O)[C@@H](Cc1ccccc1)NC(=O)[C@H](Cc1ccc(O)cc1)NC(=O)[C@H](CO)NC(=O)[C@H](Cc1c[nH]c2ccccc12)NC(=O)[C@H](Cc1c[nH]cn1)NC(=O)[C@@H]1CCC(=O)N1 [Example 10, pGlu-His-Trp-Ser-Tyr-D-Phe-Npg-Arg-Pro-NEt] | 23.5 ± 4.0 nmol/L | 0.229 nM | – | –
Ac-X[dPhe(4-Cl)][d3Pal]SY[dCit][tBuAla]RP[dA]-NH2 (not fully specified (residue 1); printed as AcD-Nal-D-pClPhe-D-Pal-Ser-Tyr-D-Cit-Npg-Arg-Pro-D-Ala-NH2; also: trifluoroacetate salt) [AcD-Nal-D-pClPhe-D-Pal-Ser-Tyr-D-Cit-Npg-Arg-Pro-D-Ala-NH2] | – | – | 10.2 -log Ki | –
Ac-X[dPhe(4-Cl)][d3Pal]SY[d(hCit)][tBuAla]RP[dA]-NH2 (not fully specified (residue 1); printed as AcD-Nal-D-pClPhe-D-Pal-Ser-Tyr-D-HCit-Npg-Arg-Pro-D-Ala-NH2; also: trifluoroacetate salt) [AcD-Nal-D-pClPhe-D-Pal-Ser-Tyr-D-HCit-Npg-Arg-Pro-D-Ala-NH2] | – | – | 10.1 -log Ki | –

Second part, led by results:

Total plasma testosterone (LH-RH receptors [1]) | Ki (LH-RH receptors [2]) | pKi [3] | Molecule | also measured
20.5 ± 5.2 nmol/L | 0.162 nM | – | CCNC(=O)[C@@H]1CCCN1C(=O)[C@H](CCCNC(=N)N)NC(=O)[C@H](CC(C)(C)C)NC(=O)[C@@H](Cc1c[nH]c2ccccc12)NC(=O)[C@H](Cc1ccc(O)cc1)NC(=O)[C@H](CO)NC(=O)[C@H](Cc1c[nH]c2ccccc12)NC(=O)[C@H](Cc1c[nH]cn1)NC(=O)[C@@H]1CCC(=O)N1 [Example 12, pGlu-His-Trp-Ser-Tyr-D-Trp-Npg-Arg-Pro-NEt] | –
– | 0.316 nM | – | CCNC(=O)[C@@H]1CCCN1C(=O)[C@H](CCCNC(=N)N)NC(=O)[C@H](CC(C)(C)C)NC(=O)[C@@H](Cc1ccc2ccccc2c1)NC(=O)[C@H](Cc1ccc(O)cc1)NC(=O)[C@H](CO)NC(=O)[C@H](Cc1c[nH]c2ccccc12)NC(=O)[C@H](Cc1c[nH]cn1)NC(=O)[C@@H]1CCC(=O)N1 [Example 14, pGlu-His-Trp-Ser-Tyr-D-Nal-Npg-Arg-Pro-NEt] | –
– | – | 9.79 -log Ki | pGlu-His-Trp-Ser-Tyr-D-Trp-Npg-Arg-Pro-NEt (peptide) | –
22.9 ± 4.2 nmol/L | 1.07 nM | – | CC(C)(C)C[C@H](NC(=O)[C@@H](Cc1ccc2ccccc2c1)NC(=O)[C@H](Cc1ccc(O)cc1)NC(=O)[C@H](CO)NC(=O)[C@H](Cc1c[nH]c2ccccc12)NC(=O)[C@H](Cc1c[nH]cn1)NC(=O)[C@@H]1CCC(=O)N1)C(=O)N[C@@H](CCCNC(=N)N)C(=O)N1CCC[C@H]1C(=O)NCC(N)=O [Example 13, pGlu-His-Trp-Ser-Tyr-D-Nal-Npg-Arg-Pro-Gly-NH2] ([pGlu]HWSY[d2Nal][tBuAla]RPG-NH2) | agonistic potency in words (LH-RH receptors [1]; 10 ng/kg s.c.): range of potency similar to that of leuprorelin or tryptorelin
– | – | 8.58 -log Ki | Goserelin (peptide) | –
– | – | 8.73 -log Ki | pGlu-His-Trp-Ser-Tyr-D-Npg-Npg-Arg-Pro-NEt (peptide) | –
– | – | 9.5 -log Ki | pGlu-His-Trp-Ser-Tyr-D-Nal-Npg-Arg-Pro-NEt (peptide) | –
– | – | 9.57 -log Ki | XHWSYXXRPG (pGlu at 1; D-Ala at 6; Npg at 7; C-terminal Gly-NH2 (amide)) [pGlu-His-Trp-Ser-Tyr-D-Ala-Npg-Arg-Pro-Gly-NH2] | –
– | – | 8.63 -log Ki | XHWSYXXRPG (pGlu at 1; D-Phe at 6; Npg at 7; C-terminal Gly-NH2 (amide)) [pGlu-His-Trp-Ser-Tyr-D-Phe-Npg-Arg-Pro-Gly-NH2] | –
– | – | 8.97 -log Ki | XHWSYXXRPG (pGlu at 1; D-Nal (3-(2-naphtyl)alanine) at 6; Npg at 7; C-terminal Gly-NH2 (amide)) [pGlu-His-Trp-Ser-Tyr-D-Nal-Npg-Arg-Pro-Gly-NH2] | –
– | – | 8.2 -log Ki | XHWSYXXRPG (pGlu at 1; D-Npg at 6; Npg at 7; C-terminal Gly-NH2 (amide)) [pGlu-His-Trp-Ser-Tyr-D-Npg-Npg-Arg-Pro-Gly-NH2] | –
